Measurements as given in PubChem BioAssay AID1963978 (Molecular Pharmacology Branch, DTP, NCI, 2024).

Test system: 616215-338-R-J1-PDC spheroids with HUVEC/MSC, viability
Assay: Anticancer human tumor 616215-338-R-J1-PDC patient-derived colon adenocarcinoma cell line growth inhibition [PI3K]
Conditions: for IC50: curve of first compound; for viability, T/C: stronger effect = lower value
Outline: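 Tumor cells grown as multi-cell spheroids with HUVEC endothelial cells and MSC fibroblast-like stroma were treated with targeted agents combined with inavolisib, alpelisib, duvelisib or copanlisib. Doses fell in half-log steps from near clinical Cmax, else from 10 microM. Viability was measured.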

[1] = second compound 0.0316 µM, first compound 0.0316 µM
[2] = second compound 0.0316 µM, first compound 0.1 µM
[3] = second compound 0.0316 µM, first compound 0.316 µM
[4] = second compound 0.0316 µM, first compound 1 µM
[5] = second compound 0.0316 µM, first compound 3.16 µM
[6] = second compound 0.0316 µM, first compound 10 µM
[7] = second compound 0.1 µM, first compound 0.0316 µM
[8] = second compound 0.1 µM, first compound 0.1 µM
[9] = second compound 0.1 µM, first compound 0.316 µM
[10] = second compound 0.1 µM, first compound 1 µM
[11] = second compound 0.1 µM, first compound 3.16 µM
[12] = second compound 0.1 µM, first compound 10 µM
[13] = second compound 0.316 µM, first compound 0.0316 µM
[14] = second compound 0.316 µM, first compound 0.1 µM
[15] = second compound 0.316 µM, first compound 0.316 µM
[16] = second compound 0.316 µM, first compound 1 µM
[17] = second compound 0.316 µM, first compound 3.16 µM
[18] = second compound 0.316 µM, first compound 10 µM
[19] = second compound 1 µM, first compound 0.0316 µM
[20] = second compound 1 µM, first compound 0.1 µM
[21] = second compound 1 µM, first compound 0.316 µM
[22] = second compound 1 µM, first compound 1 µM
[23] = second compound 1 µM, first compound 3.16 µM
[24] = second compound 1 µM, first compound 10 µM
[25] = second compound 0.00316 µM, first compound 0.0316 µM
[26] = second compound 0.00316 µM, first compound 0.1 µM
[27] = second compound 0.00316 µM, first compound 0.316 µM
[28] = second compound 0.00316 µM, first compound 1 µM
[29] = second compound 0.00316 µM, first compound 3.16 µM
[30] = second compound 0.00316 µM, first compound 10 µM
[31] = second compound 0.01 µM, first compound 0.0316 µM
[32] = second compound 0.01 µM, first compound 0.1 µM
[33] = second compound 0.01 µM, first compound 0.316 µM
[34] = second compound 0.01 µM, first compound 1 µM
[35] = second compound 0.01 µM, first compound 3.16 µM
[36] = second compound 0.01 µM, first compound 10 µM
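Also: spheroids exposed to agents for seven days before the viability read.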

Cn1ncc(Cl)c1-c1cc(C(=O)NC(CN)Cc2cccc(F)c2)sc1Cl (stereo unspecified) + CC(Nc1ncnc2nc[nH]c12)c1cc2cccc(Cl)c2c(=O)n1-c1ccccc1
IC50 (second compound 0.0316 µM): 5.37 µM | IC50 (second compound 0.1 µM): 4.2 µM | IC50 (second compound 0.316 µM): 4.15 µM | IC50 (second compound 1 µM): 4.48 µM | IC50 (second compound 3.16 µM): 3.16 µM | IC50 (second compound 10 µM): 3.29 µM | viability, T/C [1]: 106% | viability, T/C [2]: 87.6% | viability, T/C [3]: 98% | viability, T/C [4]: 93.7% | viability, T/C [5]: 75.7% | viability, T/C [6]: 19.8% | viability, T/C [7]: 107% | viability, T/C [8]: 103% | viability, T/C [9]: 100% | viability, T/C [10]: 92% | viability, T/C [11]: 60.7% | viability, T/C [12]: 16.4% | viability, T/C [13]: 98.4% | viability, T/C [14]: 100% | viability, T/C [15]: 104% | viability, T/C [16]: 95% | viability, T/C [17]: 59.5% | viability, T/C [18]: 19.6% | viability, T/C [19]: 95.9% | viability, T/C [20]: 88.5% | viability, T/C [21]: 105% | viability, T/C [22]: 94.5% | viability, T/C [23]: 64% | viability, T/C [24]: 17.6% | viability, T/C (second compound 3.16 µM, first compound 0.0316 µM): 104% | viability, T/C (second compound 3.16 µM, first compound 0.1 µM): 113% | viability, T/C (second compound 3.16 µM, first compound 0.316 µM): 96.1% | viability, T/C (second compound 3.16 µM, first compound 1 µM): 82.1% | viability, T/C (second compound 3.16 µM, first compound 3.16 µM): 50% | viability, T/C (second compound 3.16 µM, first compound 10 µM): 19.6% | viability, T/C (second compound 10 µM, first compound 0.0316 µM): 98.3% | viability, T/C (second compound 10 µM, first compound 0.1 µM): 112% | viability, T/C (second compound 10 µM, first compound 0.316 µM): 106% | viability, T/C (second compound 10 µM, first compound 1 µM): 75.1% | viability, T/C (second compound 10 µM, first compound 3.16 µM): 54.7% | viability, T/C (second compound 10 µM, first compound 10 µM): 20.6%

C#Cc1c(F)ccc2cc(O)cc(-c3ncc4c(N5CC6CCC(C5)N6)nc(OCC56CCCN5CC(F)C6)nc4c3F)c12 (stereo unspecified) + COc1c(OCCCN2CCOCC2)ccc2c3n(c(=NC(=O)c4cnc(N)nc4)nc12)CCN3
IC50 (second compound 0.00316 µM): > 10 µM | IC50 (second compound 0.01 µM): 7.8 µM | IC50 (second compound 0.0316 µM): 8.36 µM | IC50 (second compound 0.1 µM): 5.99 µM | IC50 (second compound 0.316 µM): < 0.0316 µM | IC50 (second compound 1 µM): < 0.0316 µM | viability, T/C [25]: 95.5% | viability, T/C [26]: 89.2% | viability, T/C [27]: 90.4% | viability, T/C [28]: 91.4% | viability, T/C [29]: 94.9% | viability, T/C [30]: 72% | viability, T/C [31]: 95.5% | viability, T/C [32]: 89.7% | viability, T/C [33]: 91.8% | viability, T/C [34]: 102% | viability, T/C [35]: 73.6% | viability, T/C [36]: 43.5% | viability, T/C [1]: 101% | viability, T/C [2]: 98.1% | viability, T/C [3]: 95.4% | viability, T/C [4]: 106% | viability, T/C [5]: 81.5% | viability, T/C [6]: 44.1% | viability, T/C [7]: 94% | viability, T/C [8]: 95.9% | viability, T/C [9]: 90.2% | viability, T/C [10]: 93.7% | viability, T/C [11]: 74.7% | viability, T/C [12]: 30.3% | viability, T/C [13]: 38.2% | viability, T/C [14]: 42.4% | viability, T/C [15]: 38.2% | viability, T/C [16]: 30.9% | viability, T/C [17]: 32.4% | viability, T/C [18]: 17.9% | viability, T/C [19]: 19.8% | viability, T/C [20]: 27.1% | viability, T/C [21]: 17.3% | viability, T/C [22]: 10.8% | viability, T/C [23]: 6.21% | viability, T/C [24]: 0.88%

Cn1ncc(Cl)c1-c1cc(C(=O)NC(CN)Cc2cccc(F)c2)sc1Cl (stereo unspecified) + COc1c(OCCCN2CCOCC2)ccc2c3n(c(=NC(=O)c4cnc(N)nc4)nc12)CCN3
IC50 (second compound 0.00316 µM): 2.98 µM | IC50 (second compound 0.01 µM): 2.96 µM | IC50 (second compound 0.0316 µM): 2.49 µM | IC50 (second compound 0.1 µM): 1.89 µM | IC50 (second compound 0.316 µM): < 0.0316 µM | IC50 (second compound 1 µM): < 0.0316 µM | viability, T/C [25]: 95.1% | viability, T/C [26]: 90.2% | viability, T/C [27]: 91.7% | viability, T/C [28]: 99.6% | viability, T/C [29]: 47.6% | viability, T/C [30]: 16.6% | viability, T/C [31]: 108% | viability, T/C [32]: 96.3% | viability, T/C [33]: 94.6% | viability, T/C [34]: 92.9% | viability, T/C [35]: 47.3% | viability, T/C [36]: 17.6% | viability, T/C [1]: 102% | viability, T/C [2]: 104% | viability, T/C [3]: 96.7% | viability, T/C [4]: 75.2% | viability, T/C [5]: 43.9% | viability, T/C [6]: 15.1% | viability, T/C [7]: 90.8% | viability, T/C [8]: 86.8% | viability, T/C [9]: 79.7% | viability, T/C [10]: 72.8% | viability, T/C [11]: 32.2% | viability, T/C [12]: 12.9% | viability, T/C [13]: 45% | viability, T/C [14]: 35% | viability, T/C [15]: 35.5% | viability, T/C [16]: 32% | viability, T/C [17]: 27.2% | viability, T/C [18]: 15.3% | viability, T/C [19]: 21.4% | viability, T/C [20]: 28.2% | viability, T/C [21]: 16.9% | viability, T/C [22]: 20.9% | viability, T/C [23]: 16.6% | viability, T/C [24]: 7.24%
